Here are results for 23 compounds from patent publication US20240270740A1, “INHIBITORS OF CYCLIC GMP-AMP SYNTHASE AND USES THEREOF” (Ventus Therapeutics U.S., Inc., priority 2022, published 2024).

Test [1] addresses T1, hcGAS (Homo sapiens, UniProt Q8N884). The test is described as follows: hcGAS Kinase-Glo assay (ATP depletion). Format: biochemical. Particulars: 40 nM hcGAS, 100 μM ATP, 100 μM GTP, 25 nM dsDNA, 3 h incubation. How it is done:
cGAS catalyzes the cyclization of ATP and GTP to produce cGAMP, which is the activating ligand of STING. Human cGAS (hcGAS) inhibition can thus be quantified by measuring how much cGAMP is formed either indirectly, by monitoring ATP-depletion as in the hcGAS Kinase-Glo assay (as described below), or directly, such as using the hcGAS LCMS assay (as described below).
(i) hcGAS Kinase-Glo Assay
Compounds were tested for their human-cGAS […] inhibition activity using the methodology reported in Lama et al., “Development of human cGAS-specific small molecule inhibitors for repression of dsDNA-triggered interferon expression”, Nature Communications 10, Article number: 2261 (2019), with slight changes to some conditions as shown in Table B.
The results of the assay, expressed in IC50 values, are reported in Table D with the following designations: A represents an IC50 value<0.01 μM; B represents an IC50 value≥0.01 μM and <0.03 μM; C represents an IC50 value≥0.03 μM and <0.1 μM; D represents an IC50 value≥0.1.
(In general: Kinase-Glo measures the ATP left after a reaction by luminescence.)

In test [2] the target is T1, hcGAS. Briefly: hcGAS LCMS assay (direct measurement of cGAMP production). It is filed as biochemical. Particulars: 0.5 nM hcGAS, 100 μM ATP, 100 μM GTP, 25 nM dsDNA, 4 h incubation. A digest of the protocol:
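Direct LC/MS readout of cGAMP formed: 4-h enzyme–substrate incubation with compound, stopped by acetonitrile/water quench carrying isotope-labelled cGAMP (0.15 mM) as standard. Potency reported as IC50 ranges.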

SMILES strings stand for the structures. pIC50: −log10 of the molar value. Where only a bound is given, the exact number is not on record here.

T1 sequence (Q8N884 whole entry): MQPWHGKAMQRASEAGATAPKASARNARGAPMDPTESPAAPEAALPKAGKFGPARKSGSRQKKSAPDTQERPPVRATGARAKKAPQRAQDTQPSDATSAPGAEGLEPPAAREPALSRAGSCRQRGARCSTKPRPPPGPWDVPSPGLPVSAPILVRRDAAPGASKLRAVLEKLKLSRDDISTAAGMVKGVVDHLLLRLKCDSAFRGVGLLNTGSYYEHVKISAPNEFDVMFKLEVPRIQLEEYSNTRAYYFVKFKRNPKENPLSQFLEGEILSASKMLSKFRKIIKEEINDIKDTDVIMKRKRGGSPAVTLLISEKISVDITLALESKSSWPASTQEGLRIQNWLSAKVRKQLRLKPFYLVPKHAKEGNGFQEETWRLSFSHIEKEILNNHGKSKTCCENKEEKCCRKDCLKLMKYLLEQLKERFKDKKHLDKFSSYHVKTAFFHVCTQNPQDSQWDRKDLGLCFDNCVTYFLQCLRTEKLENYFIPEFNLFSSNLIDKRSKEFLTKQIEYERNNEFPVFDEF

By pIC50 is commonly meant the negative decadic logarithm of the IC50, by convention in mol/L. Lower therefore signals a large IC50. Compound `COc1c(NCCO)cc(C(=O)Nc2nnc(-c3sccc3Cl)s2)oc1=O` [Compound 147, N-[5-(3-chlorothiophen-2-yl)-1,3,4-thiadiazol-2-yl]-4-[(2-hydroxyethyl)amino]-5-methoxy-6-oxopyran-2-carboxamide] had a negative logarithm of the IC50 (pIC50) against hcGAS [1] of at most 7.00.
On the same count and under the same terms, for `COc1c(N[C@H]2C[C@@H](OC)C2)cc(C(=O)Nc2nnc(-n3nccc3C)s2)oc1=O` [Compound 9, 3-methoxy-4-(((1,3-cis)-3-methoxycyclobutyl)amino)-N-(5-(5-methyl-1H-pyrazol-1-yl)-1,3,4-thiadiazol-2-yl)-2-oxo-2H-pyran-6-carboxamide] the value was 7.00 to 7.52; for `COCCNc1cc(C(=O)Nc2nnc(-c3c(C)csc3C#N)s2)oc(=O)c1OC` [Compound 137, N-(5-(2-cyano-4-methylthiophen-3-yl)-1,3,4-thiadiazol-2-yl)-3-methoxy-4-((2-methoxyethyl)amino)-2-oxo-2H-pyran-6-carboxamide], at most 7.00; for `COc1c(N[C@H]2COC[C@H]2O)cc(C(=O)Nc2nnc(-n3nccc3C)s2)oc1=O` [Compound 113, 4-(((3S,4S)-4-hydroxytetrahydrofuran-3-yl)amino)-3-methoxy-N-(5-(5-methyl-1H-pyrazol-1-yl)-1,3,4-thiadiazol-2-yl)-2-oxo-2H-pyran-6-carboxamide], 7.52 to 8.00.
Still for that read-out and setting: for `CCc1ccnn1-c1nnc(NC(=O)c2cc(NCCOC)c(OC)c(=O)o2)s1` [Compound 141, N-(5-(5-ethyl-1H-pyrazol-1-yl)-1,3,4-thiadiazol-2-yl)-3-methoxy-4-((2-methoxyethyl)amino)-2-oxo-2H-pyran-6-carboxamide] the value was at most 7.00; for `COc1c(NC2COC2)cc(C(=O)Nc2nnc(-n3nccc3C)s2)oc1=O` [Compound 104, 3-methoxy-N-(5-(5-methyl-1H-pyrazol-1-yl)-1,3,4-thiadiazol-2-yl)-4-(oxetan-3-ylamino)-2-oxo-2H-pyran-6-carboxamide], 7.00 to 7.52.
Same read-out and setting: the figure for `COc1c(N2CCOCC2)cc(C(=O)Nc2nnc(-n3nccc3C)s2)oc1=O` [Compound 186, 3-methoxy-N-(5-(5-methyl-1H-pyrazol-1-yl)-1,3,4-thiadiazol-2-yl)-4-morpholino-2-oxo-2H-pyran-6-carboxamide] is 7.00 to 7.52; for `COc1c(N[C@H]2C[C@H](OC)C2)cc(C(=O)Nc2nnc(-n3nccc3C)s2)oc1=O` [Compound 69, 3-methoxy-4-(((1,3-trans)-3-methoxycyclobutyl)amino)-N-(5-(5-methyl-1H-pyrazol-1-yl)-1,3,4-thiadiazol-2-yl)-2-oxo-2H-pyran-6-carboxamide] it is 7.52 to 8.00; for `COc1c(N[C@H]2CC[C@H](O)CC2)cc(C(=O)Nc2nnc(-n3nccc3C)s2)oc1=O` [Compound 217] it is 7.52 to 8.00.
At hcGAS [1], `COc1c(N[C@H]2CCC[C@@H]2O)cc(C(=O)Nc2nnc(-n3nccc3C)s2)oc1=O` (racemic) [Rac-15, 4-(((1S,2S)-2-hydroxycyclopentyl)amino)-3-methoxy-N-(5-(5-methyl-1H-pyrazol-1-yl)-1,3,4-thiadiazol-2-yl)-2-oxo-2H-pyran-6-carboxamide] had a pIC50 of 7.00 to 7.52.
For the compound `COc1c(NCCN)cc(C(=O)Nc2nnc(-n3nccc3C)s2)oc1=O` [Compound 203, 4-((2-aminoethyl)amino)-3-methoxy-N-(5-(5-methyl-1H-pyrazol-1-yl)-1,3,4-thiadiazol-2-yl)-2-oxo-2H-pyran-6-carboxamide], on hcGAS [1], the pIC50 is at most 7.00.
Still for that read-out and setting: for `COc1c(N[C@@H]2CC[C@H]2O)cc(C(=O)Nc2nnc(-n3nccc3C)s2)oc1=O` (racemic) [Rac-37, 4-(((1R,2R)-2-hydroxycyclobutyl)amino)-3-methoxy-N-(5-(5-methyl-1H-pyrazol-1-yl)-1,3,4-thiadiazol-2-yl)-2-oxo-2H-pyran-6-carboxamide] the value was 7.52 to 8.00; for `COc1c(N[C@H]2CC[C@@H](OC)CC2)cc(C(=O)Nc2nnc(-n3nccc3C)s2)oc1=O` [Compound 219, 3-methoxy-4-((1,4-cis-4-methoxycyclohexyl)amino)-N-(5-(5-methyl-1H-pyrazol-1-yl)-1,3,4-thiadiazol-2-yl)-2-oxo-2H-pyran-6-carboxamide], 7.52 to 8.00.
Same read-out and setting: the figure for `COC[C@H]1CCN(c2cc(C(=O)Nc3nnc(-n4nccc4C)s3)oc(=O)c2OC)C1` [Compound 87, (S)-3-methoxy-4-(3-(methoxymethyl)pyrrolidin-1-yl)-N-(5-(5-methyl-1H-pyrazol-1-yl)-1,3,4-thiadiazol-2-yl)-2-oxo-2H-pyran-6-carboxamide] is 7.00 to 7.52; for `COCC12CC(Nc3cc(C(=O)Nc4nnc(-n5nccc5C)s4)oc(=O)c3OC)(C1)C2` [Compound 44, 3-methoxy-4-((3-(methoxymethyl)bicyclo[1.1.1]pentan-1-yl)amino)-N-(5-(5-methyl-1H-pyrazol-1-yl)-1,3,4-thiadiazol-2-yl)-2-oxo-2H-pyran-6-carboxamide] it is 7.00 to 7.52; for `COc1c(N2CC[C@@H](CO)C2)cc(C(=O)Nc2nnc(-n3nccc3C)s2)oc1=O` [Compound 88, (R)-4-(3-(hydroxymethyl)pyrrolidin-1-yl)-3-methoxy-N-(5-(5-methyl-1H-pyrazol-1-yl)-1,3,4-thiadiazol-2-yl)-2-oxo-2H-pyran-6-carboxamide] it is 7.52 to 8.00.
On the same count and under the same terms, the figure for `COc1c(N2CCC(OC)CC2)cc(C(=O)Nc2nnc(-n3nccc3C)s2)oc1=O` [Compound 19, 3-methoxy-4-(4-methoxypiperidin-1-yl)-N-(5-(5-methyl-1H-pyrazol-1-yl)-1,3,4-thiadiazol-2-yl)-2-oxo-2H-pyran-6-carboxamide] is 7.52 to 8.00; for `COc1c(N[C@H](C)CO)cc(C(=O)Nc2nnc(-n3nccc3C)s2)oc1=O` [Compound 25, (R)-4-((1-hydroxypropan-2-yl)amino)-3-methoxy-N-(5-(5-methyl-1H-pyrazol-1-yl)-1,3,4-thiadiazol-2-yl)-2-oxo-2H-pyran-6-carboxamide] it is 7.00 to 7.52.
Consider `COc1c(NC23CC(CO)(C2)C3)cc(C(=O)Nc2nnc(-n3nccc3C)s2)oc1=O` [Compound 218, 4-((3-(hydroxymethyl)bicyclo[1.1.1]pentan-1-yl)amino)-3-methoxy-N-(5-(5-methyl-1H-pyrazol-1-yl)-1,3,4-thiadiazol-2-yl)-2-oxo-2H-pyran-6-carboxamide], for which, on hcGAS [1], the negative logarithm of the IC50 (pIC50) was 7.52 to 8.00.
On the same count and under the same terms, the figure for `CNc1cc(C(=O)Nc2nnc(-n3nccc3C)s2)oc(=O)c1OC` [Compound 105, 3-methoxy-N-(5-(5-methyl-1H-pyrazol-1-yl)-1,3,4-thiadiazol-2-yl)-4-(methylamino)-2-oxo-2H-pyran-6-carboxamide] is 7.00 to 7.52.
At hcGAS [2], `COC[C@@]1(Nc2cc(C(=O)Nc3nnc(-n4nccc4C)s3)oc(=O)c2OC)CCOC1` (single isomer, unassigned) [Compound 100*] showed a negative logarithm of the IC50 (pIC50) of 7.70 to 8.30.
`COC[C@@H](C)Nc1cc(C(=O)Nc2nnc(-c3c(Cl)ccn3C)s2)oc(=O)c1OC` [Compound 128, (R)-N-(5-(3-chloro-1-methyl-1H-pyrrol-2-yl)-1,3,4-thiadiazol-2-yl)-3-methoxy-4-((1-methoxypropan-2-yl)amino)-2-oxo-2H-pyran-6-carboxamide] showed a pIC50 against hcGAS [2] above 8.30.
Still for that read-out and setting: the figure for `COc1c(NC[C@H]2CCO2)cc(C(=O)Nc2nnc(-n3nccc3C)s2)oc1=O` [Compound 118, (R)-3-methoxy-N-(5-(5-methyl-1H-pyrazol-1-yl)-1,3,4-thiadiazol-2-yl)-4-((oxetan-2-ylmethyl)amino)-2-oxo-2H-pyran-6-carboxamide] is 7.70 to 8.30.
